{
  "source": "paper PMC11627468",
  "about": "“Novel enzyme‐resistant pancreatic polypeptide analogs evoke pancreatic beta‐cell rest, enhance islet cell turnover, and inhibit food intake in mice” (Biofactors (Oxford, England), 2024)",
  "key": {"BRIN‐BD11 beta‐cells [1]": {"system": "BRIN‐BD11 beta‐cells", "test": "Beta‐cell proliferation (Ki‐67 staining)", "assay_type": "cell-based", "details": "versus control cultures, n = 3", "protocol": "(§1) To assess the effects of PP and related peptides (10^−8 and 10^−6 M) on beta‐cell proliferation and apoptosis, BRIN‐BD11 beta‐cells were seeded onto sterilized, clear‐glass coverslips (16 mm diameter) and placed in 12‐well plates (Falcon Ltd) at a density of 40,000 cells per well and cultured for 18 h. Media control (11.1 mM glucose), GLP‐1 (10^−8 and 10^−6 M), and a cytokine cocktail mix (IL‐1β [100 U/mL], IFNγ [20 U/mL], TNFα [200 U/mL], Sigma Aldrich, UK) were employed as controls, as appropriate. Cells were then rinsed with PBS and fixed using 4% paraformaldehyde. After antigen retrieval with sodium citrate buffer at 95°C for 20 min, blocking was performed using 2% bovine serum albumin (BSA) for 45 min. For proliferation studies, the slips were then incubated at 37°C with rabbit anti‐Ki‐67 primary antibody (Abcam, ab15580), and subsequently with Alexa Fluor® 488 secondary antibody. Coverslips were mounted onto polylysine‐coated microscope slides using a 50:50 glycerol:PBS solution and stored at 4°C until required for analysis. To assess the ability of PP peptides to protect against cytokine‐induced apoptosis, cells were seeded, washed, and fixed as above, with the exception that the media was supplemented with the cytokine mix. The slips were then incubated at 37°C with TUNEL reaction mix for 60 min (Roche Diagnostics, Germany), and mounted onto microscope slides. To assess receptor specificity, co‐incubation of PP peptides with the well characterized NPY4R antagonist, (S)‐VU0637120,[24] at 10^−5 M was employed for beta‐cell proliferation experiments, conducted as detailed above. All slides were viewed using a fluorescent microscope (Olympus System Microscope, model BX51; Southend‐on‐Sea, UK) and photographed by DP70 camera adapter system. Proliferation/TUNEL positive frequency was determined using the cell‐counter function on ImageJ Software and expressed as % of total cells analyzed."}, "C57BL/6 mice [2]": {"system": "C57BL/6 mice", "test": "Acute food intake in overnight fasted mice", "assay_type": "in vivo", "protocol": "(§2) Acute in vivo studies were conducted in groups (n = 6) of 4‐month‐old male C57BL/6 mice (Envigo, Huntington, UK). All mice were maintained on standard rodent chow (10% fat, 30% protein, and 60% carbohydrate; Trouw Nutrition, Northwich, UK), and drinking water provided ad libitum. Mice were housed individually and kept in a temperature‐controlled environment (22 ± 2°C), with a 12‐h light/dark cycle. Experiments were carried out in accordance with the UK Animal Scientific Procedures Act 1986 as well as being approved by Ulster University Animal Ethics Review Committee (AWERB) committee and protected by the UK Home Office Animal project license number PPL2902, approved on April 26, 2021. Acute effects of test peptides on food intake were tested in overnight (16 h) fasted mice. Briefly, fasted mice were administered an intraperitoneal (i.p.) injection of saline vehicle (0.9% (w/v) NaCl) alone or in combination with test peptides (each at 25, 75, or 200 nmol/kg bw) and cumulative food intake measured at regular intervals, to assess the pharmacodynamic profile of the test peptides. For food intake studies, mice were provided with preweighed rodent maintenance diet in their food hopper at t = 0 min, which was then re‐weighed at each timepoint with all due care taken to account for any wastage or crumbling of the food pellets. In this regard, the investigator was present at all times during the 180‐min test period to ensure accuracy and consistency in all measurements. Furthermore, effects of PP or related peptides (25 nmol/kg bw) on glucose homeostasis and insulin secretion were evaluated in overnight fasted mice following i.p. injection of glucose alone (18 mmol/kg bw) or in combination with PP peptides (each at 25 nmol/kg bw)."}, "DPP-4": {"system": "T1, DPP-4", "T1 construct": "purchased Sigma-Aldrich", "test": "In vitro DPP‐4 degradation", "assay_type": "in vitro ADME, human", "details": "purified human DPP-4 enzyme; peptide 50 μg with purified human DPP‐4 (5 μL, 0.01 U/L), 37°C, 8 h; stopped with 10% (v/v) trifluoroacetic acid; rp‐HPLC C‐18, UV 214 nm; peaks by MALDI‐MS; read-out: % intact peptide after 8 h DPP‐4 incubation", "protocol": "PP peptides (50 μg) were incubated at 37°C for 0–8 h with 5 μL of purified human DPP‐4 enzyme (0.01 U/L, Sigma‐Aldrich, Gillingham, UK). Degradation reactions were terminated via the addition of 10 μL 10% (v/v) trifluoroacetic acid/water solution. Reaction mixes were separated by reverse phase rp‐HPLC using a Phenomenex C‐18 analytical column (250 × 4.6 mm^2) with UV absorbance detection at 214 nm (ThermoQuest SpectraSystem UV2000 detector). HPLC peaks of interest were collected and analyzed by MALDI‐TOF MS on a Perseptive Biosystems Voyager‐DE Biospectrometry (Hertfordshire, UK)."}, "C57BL/6 mice [3]": {"system": "C57BL/6 mice", "test": "Glucose‐stimulated plasma insulin in mice", "assay_type": "in vivo", "details": "n = 6; for glucose‐induced insulin secretion (plasma insulin): peptide 25 nmol/kg with glucose 18 mmol/kg i.p., versus glucose control", "protocol": "as §2, with “bw). […] Blood glucose was measured immediately using a hand‐held Ascencia Contour blood glucose meter (Bayer Healthcare, Newbury, Berkshire, UK). For plasma insulin, blood was collected in chilled fluoride/heparin‐coated microcentrifuge tubes (Sarstedt, Numbrecht, Germany) and centrifuged using a Beckman microcentrifuge (Beckman Instruments, Galway, Ireland) for 10 min at 12,000 rpm. Plasma was separated and stored at −20°C, until determination of plasma insulin by radioimmunoassay.[23]” for “bw).”"}, "C57BL/6 mice [4]": {"system": "C57BL/6 mice", "test": "Glucose tolerance in mice", "assay_type": "in vivo", "details": "exendin‐4 0.25 nmol/kg or CCK‐8 25 nmol/kg with glucose 18 mmol/kg i.p., versus glucose control; n = 6", "protocol": "as §2, with “bw). […] Blood glucose was measured immediately using a hand‐held Ascencia Contour blood glucose meter (Bayer Healthcare, Newbury, Berkshire, UK). […]” for “bw).”"}, "BRIN‐BD11 beta‐cells [5]": {"system": "BRIN‐BD11 beta‐cells", "test": "Protection against cytokine‐induced beta‐cell apoptosis (TUNEL)", "assay_type": "cell-based", "details": "peptides 10^−8 and 10^−6 M, cytokine cocktail IL‐1β 100 U/mL, IFNγ 20 U/mL, TNFα 200 U/mL, n = 3", "protocol": "as §1, with “The slips were then incubated at 37°C with TUNEL reaction mix for 60 min (Roche Diagnostics, Germany), and mounted onto microscope slides. To assess receptor specificity, co‐incubation of PP peptides with the well characterized NPY4R antagonist, (S)‐VU0637120,[24] at 10^−5 M was employed for beta‐cell proliferation experiments, conducted as detailed above. All slides were viewed using a fluorescent microscope (Olympus System Microscope, model BX51; Southend‐on‐Sea, UK) and photographed by DP70 camera adapter system.” left out"}},
  "note": "Starred links: 1 amine or outer side, 2 acyl side, 3 side chain; linkers in the order of their positions; H or OH if unused. Residues, ends and D or L forms follow the SMILES beside them. Groups on a side chain read outwards from the residue. No end group written: not given here. *: point of attachment. γGlu = O=C(O)[C@H](CCC(=O)[*:2])N[*:1]; Palmitoyl = CCCCCCCCCCCCCCCC(=O)*",
  "data": [
    {"molecule": "CCCCCCCCCCCCCCCC(=O)N[C@@H](CCC(=O)NCCCC[C@H](NC(=O)[C@H](C)NC(=O)[C@H](CC(N)=O)NC(=O)[C@H](CC(=O)O)NC(=O)CNC(=O)[C@@H]1CCCN1C(=O)[C@H](Cc1ccc(O)cc1)NC(=O)[C@@H](NC(=O)[C@@H]1CCCN1C(=O)[C@H](CCC(=O)O)NC(=O)[C@H](CC(C)C)NC(=O)[C@@H]1CCCN1C(=O)[C@H](C)N)C(C)C)C(=O)N1CCC[C@H]1C(=O)N[C@@H](CCC(=O)O)C(=O)N[C@@H](CCC(N)=O)C(=O)N[C@@H](CCSC)C(=O)N[C@@H](C)C(=O)N[C@@H](CCC(N)=O)C(=O)N[C@@H](Cc1ccc(O)cc1)C(=O)N[C@@H](C)C(=O)N[C@@H](C)C(=O)N[C@@H](CC(=O)O)C(=O)N[C@@H](CC(C)C)C(=O)N[C@@H](CCCNC(=N)N)C(=O)N[C@@H](CCCNC(=N)N)C(=O)N[C@@H](Cc1ccc(O)cc1)C(=O)N[C@H](C(=O)N[C@@H](CC(N)=O)C(=O)N[C@@H](CCSC)C(=O)N[C@@H](CC(C)C)C(=O)N[C@H](C(=O)N[C@@H](CCCNC(=N)N)C(=O)N1CCC[C@H]1C(=O)N[C@@H](CCCNC(=N)N)C(=O)N[C@@H](Cc1ccc(O)cc1)C(N)=O)[C@@H](C)O)[C@@H](C)CC)C(=O)O", "note": "[[K^13Pal]PP] (H-APLEPVYPGDNAK([γGlu-Palmitoyl])PEQMAQYAADLRRYINMLTRPRY-NH2; N-terminus assumed)", "values": [
      {"measurement": "BRIN‐BD11 cell proliferation", "setting": "BRIN‐BD11 beta‐cells [1]; peptide 10^−8 M", "value": "augmented"},
      {"measurement": "food intake in combination with exendin‐4", "setting": "C57BL/6 mice [2]; PP peptide 25 nmol/kg with exendin‐4 0.25 nmol/kg i.p., fasted mice, n = 6", "value": "additive appetite suppressive actions"},
      {"measurement": "food intake in overnight fasted mice, summary in discussion", "setting": "C57BL/6 mice [2]; i.p., overnight fasted mice", "value": "retained impressive effects to restrict food intake"}
    ]},
    {"molecule": "CC[C@H](C)[C@H](NC(=O)[C@H](Cc1ccc(O)cc1)NC(=O)[C@H](CCCNC(=N)N)NC(=O)[C@H](CCCNC(=N)N)NC(=O)[C@H](CC(C)C)NC(=O)[C@H](CC(=O)O)NC(=O)[C@H](C)NC(=O)[C@H](C)NC(=O)[C@H](Cc1ccc(O)cc1)NC(=O)[C@H](CCC(N)=O)NC(=O)[C@H](C)NC(=O)[C@H](CCSC)NC(=O)[C@H](CCC(N)=O)NC(=O)[C@H](CCC(=O)O)NC(=O)[C@@H]1CCCN1C(=O)[C@@H](NC(=O)[C@H](C)NC(=O)[C@H](CC(N)=O)NC(=O)[C@H](CC(=O)O)NC(=O)CNC(=O)[C@@H]1CCCN1C(=O)[C@H](Cc1ccc(O)cc1)NC(=O)[C@@H](NC(=O)[C@@H]1CCCN1C(=O)[C@H](CCC(=O)O)NC(=O)[C@@H]1CCCN1C(=O)[C@@H]1CCCN1C(=O)[C@H](C)N)C(C)C)[C@@H](C)O)C(=O)N[C@@H](CC(N)=O)C(=O)N[C@@H](CCSC)C(=O)N[C@@H](CC(C)C)C(=O)N[C@H](C(=O)N[C@@H](CCCNC(=N)N)C(=O)N1CCC[C@H]1C(=O)N[C@@H](CCCNC(=N)N)C(=O)N[C@@H](Cc1ccc(O)cc1)C(N)=O)[C@@H](C)O", "note": "[[P^3]PP]", "values": [
      {"measurement": "remaining at 8 h", "setting": "DPP-4", "value": "> 99", "unit": "%"}
    ]},
    {"molecule": "(N‐Pal)APLEPVYPGDNATPEQMAQYAADLRRYINMLTRPR‐NH2 [[N‐Pal]PP, PP analog with C‐16 palmitate via γ‐glutamyl spacer at the N‐terminal amino group]", "values": [
      {"measurement": "glucose‐induced insulin secretion (plasma insulin)", "setting": "C57BL/6 mice [3]", "value": "slightly decreasing (p = <0.05 to 0.01)"},
      {"measurement": "cumulative food intake (appetite suppression)", "setting": "C57BL/6 mice [2]; 200 nmol/kg i.p., overnight fasted mice, later observation points, versus saline, n = 6", "value": "mild inhibitory (p < 0.05) effect"}
    ]},
    {"molecule": "(N‐Pal)APPEPVYPGDNATPEQMAQYAADLRRYINMLTRPR‐NH2 [[N‐Pal,P^3]PP, PP analog with Pro^3 and N‐terminal C‐16 palmitate via γ‐glutamyl spacer]", "values": [
      {"measurement": "glucose‐induced insulin secretion (plasma insulin)", "setting": "C57BL/6 mice [3]", "value": "slightly decreasing (p = <0.05 to 0.01)"},
      {"measurement": "cumulative food intake (appetite suppression)", "setting": "C57BL/6 mice [2]; all doses employed (25, 75, 200 nmol/kg i.p.), overnight fasted mice, n = 6", "value": "lacked bioactivity"}
    ]},
    {"molecule": "CCK‐8: used for cholecystokinin (CCK) receptor activation in combination studies (DYMGWMDF; ends and bridges not checked; UniProt P06307 96-103, looked up)", "values": [
      {"measurement": "insulinotropic action, exendin‐4 or CCK‐8", "setting": "C57BL/6 mice [3]; exendin‐4 0.25 nmol/kg or CCK‐8 25 nmol/kg with glucose 18 mmol/kg i.p.", "value": "significant insulinotropic actions"},
      {"measurement": "food intake (appetite suppression), CCK‐8 alone", "setting": "C57BL/6 mice [2]; CCK‐8 25 nmol/kg i.p., early observation points, versus saline, n = 6", "value": "impressive effects on appetite suppression (p < 0.001)"},
      {"measurement": "glucose disposal, exendin‐4 or CCK‐8", "setting": "C57BL/6 mice [4]", "value": "benefits"}
    ]},
    {"molecule": "glucagon‐like peptide‐1 (HAEGTFTSDVSSYLEGQAAKEFIAWLVKGR; ends and bridges not checked; UniProt P01275 98-127, looked up) [GLP‐1, positive control in proliferation and apoptosis tests]", "values": [
      {"measurement": "BRIN‐BD11 cell proliferation", "setting": "BRIN‐BD11 beta‐cells [1]; peptide 10^−6 M", "value": "significantly (p < 0.001) enhanced"},
      {"measurement": "BRIN‐BD11 cell proliferation", "setting": "BRIN‐BD11 beta‐cells [1]; peptide 10^−8 M", "value": "significantly (p < 0.001) enhanced"},
      {"measurement": "protection against cytokine‐induced beta‐cell apoptosis", "setting": "BRIN‐BD11 beta‐cells [5]", "value": "significantly (p = <0.01 to 0.001) protected against cell death"}
    ]}
  ]
}
